Results published in patent publication US7595401B2, “Therapeutic compounds and their use in cancer” (Myriad Pharmaceuticals, Inc., priority 2006, dated 2009).

Tested on: purified human Hsp90
Assay: Binding Assay: fluorescence polarization with BODIPY-labeled geldanamycin
Conditions: 5 μM compound, BODIPY-GM 10 nM, Hsp90 30 nM
Procedure, shortened: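 Fluorescence polarization competition with BODIPY-geldanamycin (10 nM final) and human Hsp90 (30 nM final) in HEPES-KOH pH 7.3 buffer with molybdate, NP-40, DTT; 2% DMSO, overnight at room temperature. Read 485/530 nm; percent inhibition from mP normalized to DMSO controls, fluorescent-compound points excluded.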

SMILES | % Inhibition at 5 μM Compound Concentration [%]
CCC(Cn1cnc(N)c2nc(Sc3cc4c(cc3Br)OCO4)nc1-2)c1ccccc1 (stereo not drawn) [Example 58, 8-(6-bromo-benzo[1,3]dioxol-5-ylsulfanyl)-3-(2-phenyl-butyl)-3H-purin-6-ylamine] | 8
N#Cc1cc2c(cc1Sc1nc3c(N)ncn(CCc4ccccc4Cl)c-3n1)OCO2 [Example 327, 6-({6-Amino-3-[2-(2-chlorophenyl)ethyl]-3H-purin-8-yl}thio)-1,3-benzodioxole-5-carbonitrile] | 33.0
COc1ccc(OC)c(Sc2nc3c(N)ncnc3n2CCc2ccc(O)cc2)c1 [Example 76, 4-{2-[6-amino-8-(2,5-dimethoxy-phenylsulfanyl)-purin-9-yl]-ethyl}-phenol] | 6
COc1ccc(OC)c(Sc2nc3c(N)ncn(CCc4ccccc4C)c-3n2)c1 [Example 70, 8-(2,5-dimethoxy-phenylsulfanyl)-3-(2-o-tolyl-ethyl)-3H-purin-6-ylamine] | 7
Nc1ncn(CCc2ccccc2)c2nc(Sc3ccc(NC=O)c(O)c3)nc1-2 [Example 268, N-(4-{[6-Amino-3-(2-phenylethyl)-3H-purin-8-yl]thio}-2-hydroxyphenyl)formamide] | 7.0
Nc1ncn(CCC2CCOCC2)c2nc(Sc3cc4c(cc3Br)OCO4)nc1-2 [Example 350, 8-[(6-Bromo-1,3-benzodioxol-5-yl)thio]-3-[2-(tetrahydro-2H-pyran-4-yl)ethyl]-3H-purin-6-amine] | 25
COc1ccc(OC)c(Sc2nc3c(N)ncnc3n2CCc2ccc(S(=O)(=O)O)cc2)c1 [Example 175, 4-{2-[6-Amino-8-(2,5-dimethoxy-phenylsulfanyl)-purin-9-yl]-ethyl}-benzenesulfonic acid] | 46
CCOc1ccc(OCC)c(Sc2nc3c(N)ncn(CCc4ccccc4Cl)c-3n2)c1 [Example 192, 3-[2-(2-chloro-phenyl)-ethyl]-8-(2,5-diethoxy-phenylsulfanyl)-3H-purin-6-ylamine] | 0

Next, values leading:

% Inhibition at 5 μM Compound Concentration [%] | SMILES
7 | CC(C)(C)OC(=O)N1CC[C@H](CCn2cnc(N)c3nc(Sc4cc5c(cc4Br)OCO5)nc2-3)C1 [Example 420, tert-Butyl (3S)-3-(2-{6-amino-8-[(6-bromo-1,3-benzodioxol-5-yl)thio]-3 H-purin-3-yl}ethyl)pyrrolidine-1-carboxylate]
43.00 | C[C@H](NC(=O)OC(C)(C)C)C(=O)N1CCCC(Cn2cnc(N)c3nc(Sc4cc5c(cc4Br)OCO5)nc2-3)C1 (stereo partly drawn) [Example 779, tert-butyl {(1S)-2-[3-({6-amino-8-[(6-bromo-1,3-benzodioxol-5-yl)thio]-3H-purin-3-yl}methyl)piperidin-1-yl]-1-methyl-2-oxoethyl}carbamate]
12.00 | Cc1ccsc1Sc1nc2c(N)ncn(CCC3CCN(C=O)CC3)c-2n1 [Example 547, 4-(2-{6-Amino-8-[(3-methyl-2-thienyl)thio]-3 H-purin-3-yl}ethyl)piperidine-1-carbaldehyde]
38 | CC(C)(C)OC(=O)N1CCC(=CCn2cnc(N)c3nc(Sc4cc5c(cc4Br)OCO5)nc2-3)CC1 [Example 389, tert-Butyl 4-(2-{6-amino-8-[(6-bromo-1,3-benzodioxol-5-yl)thio]-3H-purin-3-yl}ethylidene)piperidine-1-carboxylate]

Same assay, conditions: BODIPY-GM 10 nM, Hsp90 30 nM

SMILES | IC50 [µM]
COc1ccc(OC)c(Sc2nc3c(N)ncnc3n2CCc2ccc(C(C)=O)cc2)c1 [Example 63, 1-(4-{2-[6-Amino-8-(2,5-dimethoxy-phenylsulfanyl)-purin-9-yl]-ethyl}-phenyl)-ethanone] | > 5
COc1ccc(OC)c(Sc2nc3c(N)ncn(CCc4ccccc4OC)c-3n2)c1 [Example 86, 8-(2,5-dimethoxy-phenylsulfanyl)-3-[2-(2-methoxy-phenyl)-ethyl]-3H-purin-6-ylamine] | > 5
Nc1ncnc2c1nc(Sc1ccc(NC=O)c(O)c1)n2CCc1ccccc1 [Example 267, N-(4-{[6-Amino-9-(2-phenylethyl)-9H-purin-8-yl]thio}-2-hydroxyphenyl)formamide] | > 25
COc1ccc(OC)c(Sc2nc3c(N)ncnc3n2CCc2ccc(Cl)cc2Cl)c1 [Example 27, 9-[2-(2,4-Dichloro-phenyl)-ethyl]-8-(2,5-dimethoxy-phenylsulfanyl)-9H-purin-6-ylamine] | > 10
Nc1ccccc1CCn1c(Sc2cc3c(cc2Br)OCO3)nc2c(N)ncnc21 [Example 282, 9-[2-(2-Aminophenyl)ethyl]-8-[(6-bromo-1,3-benzodioxol-5-yl)thio]-9H-purin-6-amine] | 0.055
COc1cc(Sc2nc3c(N)ncnc3n2CCCc2ccccc2)cc(OC)c1OC [Example 47, 9-(3-Phenyl-propyl)-8-(3,4,5-trimethoxy-phenylsulfanyl)-9H-purin-6-ylamine] | > 10
Cc1ccccc1CCn1c(Sc2cc3c(cc2Br)OCO3)nc2c(N)ncnc21 [Example 155, 8-(6-Bromo-benzo[1,3]dioxol-5-ylsulfanyl)-9-(2-o-tolyl-ethyl)-9H-purin-6-ylamine] | 0.095
COc1ccc(OC)c(Sc2nc3c(N)ncnc3n2CCc2ccc(S(=O)(=O)O)cc2)c1 [Example 175, 4-{2-[6-Amino-8-(2,5-dimethoxy-phenylsulfanyl)-purin-9-yl]-ethyl}-benzenesulfonic acid] | 14

More lines, now with the values ahead:

IC50 [µM] | SMILES
> 5 | CC(=O)N1CCC(CCn2c(Sc3cc(F)c(F)cc3Br)nc3c(N)ncnc32)CC1 [Example 560, 9-[2-(1-Acetylpiperidin-4-yl)ethyl]-8-[(2-bromo-4,5-difluorophenyl)thio]-9 H-purin-6-amine]
0.305 | CC(C)(C)CC(=O)N1CCCC(CCn2c(Sc3cc4c(cc3Br)OCO4)nc3c(N)ncnc32)C1 (stereo not drawn) [Example 454, 8-[(6-Bromo-1,3-benzodioxol-5-yl)thio]-9-{2-[1-(3,3-dimethylbutanoyl)piperidin-3-yl]ethyl}-9H-purin-6-amine]
0.06 | Nc1ncnc2c1nc(Sc1nc3cccc(Cl)c3s1)n2CCC1CCN(C=O)CC1 [Example 661, 4-(2-{6-Amino-8-[(7-chloro-1,3-benzothiazol-2-yl)thio]-9H-purin-9yl}-ethyl)-piperidin-1-carbaldehyde]
2 | CC(=O)N1CCC(CCn2c(Sc3nc(C)c(C)s3)nc3c(N)ncnc32)CC1 [Example 654, 9-[2-(1-Acetylpiperidin-4-yl)ethyl]-8-[(4,5-dimethyl-1,3-thiazol-2-yl)thio]-9H-purin-6-amine]
1.1 | COc1ccc(OC)c(Sc2nc3c(N)ncnc3n2CCN2CCN(C(=O)C(C)(C)C)CC2)c1 [Example 444, 8-[(2,5-Dimethoxyphenyl)thio]-9-{2-[4-(2,2-dimethylpropanoyl)piperazin-1-yl]ethyl}-9H-purin-6-amine]
0.54 | CC(C)(C)OC(=O)N1CCCC1CCn1c(Sc2cc3c(cc2Br)OCO3)nc2c(N)ncnc21 (stereo not drawn) [Example 414, tert-Butyl 2-(2-{6-amino-8-[(6-bromo-1,3-benzodioxol-5-yl)thio]-9H-purin-9-yl}ethyl)pyrrolidine-1-carboxylate]
1 | CC(C)(C)OC(=O)NC(CCn1cnc(N)c2nc(Sc3cc4c(cc3Br)OCO4)nc1-2)C1CCCCC1 (stereo not drawn) [Example 671, tert-Butyl(3-{6-amino-8-[(6-bromo-1,3-benzodioxol-5-yl)thio]-3H-purin-3-yl}-1-cyclohexylpropyl)carbamate]
0.26 | Nc1ncnc2c1nc(Sc1cc3c(cc1Br)OCO3)n2CCC1CCN(Cc2ccccc2)CC1 [Example 599, 9-[2-(1-Benzylpiperidin-4-yl)ethyl]-8-[(6-bromo-1,3-benzodioxol-5-yl)thio]-9 H-purin-6-amine]
0.06 | COC(=O)CCCNC(=O)N1CCC(CCn2c(Sc3cc4c(cc3Br)OCO4)nc3c(N)ncnc32)CC1 [Example 500, Methyl 4-({[4-(2-{6-amino-8-[(6-bromo-1,3-benzodioxol-5-yl)thio]-9H-purin-9-yl}ethyl)piperidin-1-yl]carbonyl}amino)butanoate]
0.13 | CCNC(=O)N1CCC(CCn2c(Sc3cc4c(cc3Br)OCO4)nc3c(N)ncnc32)CC1 [Example 431, 4-(2-{6-Amino-8-[(6-bromo-1,3-benzodioxol-5-yl)thio]-9H-purin-9-yl}ethyl)-N-ethylpiperidine-1-carboxamide]
7.9 | CC(C)(C)OC(=O)N1C=C(CCn2c(Sc3cc4c(cc3Br)OCO4)nc3c(N)ncnc32)CCC1 [Example 462, tert-Butyl 5-(2-{6-amino-8-[(6-bromo-1,3-benzodioxol-5-yl)thio]-9H-purin-9-yl}ethyl)-3,4-dihydropyridine-1(2 H)-carboxylate]
0.46 | CC(C)(C)OC(=O)N1CCC(CCn2c(Sc3cc4c(cc3Br)OCO4)nc3c(N)ncnc32)C1 (stereo not drawn) [Example 415, tert-Butyl 3-(2-{6-amino-8-[(6-bromo-1,3-benzodioxol-5-yl)thio]-9H-purin-9-yl}ethyl)pyrrolidine-1-carboxylate]
0.95 | CC(C)(C)OC(=O)N[C@H]1CC[C@@H](CCn2cnc(N)c3nc(Sc4cc5c(cc4Br)OCO5)nc2-3)CC1 [Example 399, tert-Butyl [cis-4-(2-{6-amino-8-[(6-bromo-1,3-benzodioxol-5-yl)thio]-3H-purin-3-yl}ethyl)cyclohexyl]carbamate]
> 5 | CC(=O)N1CCC(CCn2c(Sc3nc4ccc(F)cc4s3)nc3c(N)ncnc32)CC1 [Example 655, 9-[2-(1-Acetylpiperidin-4-yl)ethyl]-8-[(6-fluoro-1,3-benzothiazol-2-yl)thio]-9H-purin-6-amine]
> 8 | Nc1ncnc2c1nc(Sc1cc3c(cc1Br)OCO3)n2CCC1CCN(S(=O)(=O)C(F)(F)F)CC1 [Example 387, 8-[(6-Bromo-1,3-benzodioxol-5-yl)thio]-9-(2-{1-[(trifluoromethyl)sulfonyl]piperidin 4-yl}ethyl)-9H-purin-6-amine]
0.305 | CC(C)N1CCCCC1CCn1c(Sc2cc3c(cc2Br)OCO3)nc2c(N)ncnc21 (stereo not drawn) [Example 445, 8-[(6-Bromo-1,3-benzodioxol-5-yl)thio]-9-[2-(1-isopropylpiperidin-2-yl)ethyl]-9H-purin-6-amine]
